Data as given in ChEMBL document CHEMBL1201862, “PubChem BioAssay data set” (2004).
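Method: 48-hour compound exposure of cells in 96-well plates, five concentrations, linear interpolation of endpoints. GI50: concentration for 50% inhibition of growth.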 Active and inactive are the calls of the source. Rule as the data show it: active = GI50 up to about 1.1 µM and inactive = higher.

Assays:
Assay in all cases: DTP human tumour cell line panel, 48 h
EKVX = test system: EKVX
TK-10 = test system: TK-10
K562 = test system: K562
SNB-75 = test system: SNB-75
HCC 2998 = test system: HCC 2998
MDA-MB-231 = test system: MDA-MB-231
UO-31 = test system: UO-31
NCI-H23 = test system: NCI-H23
DU-145 = test system: DU-145
SK-MEL-5 = test system: SK-MEL-5
OVCAR-8 = test system: OVCAR-8
SW-620 = test system: SW-620
U-251 = test system: U-251
CCRF-CEM = test system: CCRF-CEM
CAKI-1 = test system: CAKI-1
MCF7 = test system: MCF7
IGROV-1 = test system: IGROV-1
M14 = test system: M14
HCT-15 = test system: HCT-15
OVCAR-4 = test system: OVCAR-4

| SMILES | GI50 (EKVX) | GI50 (TK-10) | GI50 (K562) | GI50 (SNB-75) | GI50 (HCC 2998) | GI50 (MDA-MB-231) | GI50 (UO-31) | GI50 (NCI-H23) | GI50 (DU-145) | GI50 (SK-MEL-5) | GI50 (OVCAR-8) | GI50 (SW-620) | GI50 (U-251) | GI50 (CCRF-CEM) | GI50 (CAKI-1) | GI50 (MCF7) | GI50 (IGROV-1) | GI50 (M14) | GI50 (HCT-15) [µM] | GI50 (OVCAR-4) |
| --- | --- | --- | --- | --- | --- | --- | --- | --- | --- | --- | --- | --- | --- | --- | --- | --- | --- | --- | --- | --- |
| O=C(Nc1ccccc1C(=O)Nc1nccs1)c1ccccc1 | 36.6 µM (inactive) | 25.6 µM (inactive) | 11.2 µM (inactive) | 21.1 µM (inactive) | 13.5 µM (inactive) | 25.1 µM (inactive) | 7.89 µM (inactive) | 65.8 µM (inactive) | 13.6 µM (inactive) | 4.55 µM (inactive) | 54.5 µM (inactive) | 25.6 µM (inactive) | 6.52 µM (inactive) | 4.98 µM (inactive) | 21.3 µM (inactive) | 12.8 µM (inactive) | 35.8 µM (inactive) | 19.7 µM (inactive) | 4.37 | – |
| O=C(/C=C/c1cc2ccccc2o1)N1CCN(c2ccccn2)CC1 | 95.5 µM (inactive) | 79.6 µM (inactive) | > 100 µM (inactive) | – | > 100 µM (inactive) | 90.2 µM (inactive) | 40.9 µM (inactive) | > 100 µM (inactive) | > 100 µM (inactive) | > 100 µM (inactive) | > 100 µM (inactive) | > 100 µM (inactive) | > 100 µM (inactive) | > 100 µM (inactive) | > 100 µM (inactive) | 57.5 µM (inactive) | 84.1 µM (inactive) | 71.6 µM (inactive) | 74.6 | 49.8 µM (inactive) |
| O=c1[nH]/c(=C/c2ccc(OCc3ccccc3)cn2)c(=O)[nH]/c1=C/c1ccc(Cl)cc1 | > 100 µM (inactive) | 15.1 µM (inactive) | 0.497 µM (active) | 1.86 µM (inactive) | 2.52 µM (inactive) | 46.1 µM (inactive) | 2.7 µM (inactive) | 7.87 µM (inactive) | > 23.9 µM (inactive) | 1.01 µM (active) | > 100 µM (inactive) | 1.55 µM (inactive) | 4.35 µM (inactive) | 3.72 µM (inactive) | 0.45 µM (active) | 0.546 µM (active) | – | 1.87 µM (inactive) | 0.469 | 2.42 µM (inactive) |
| CC(C)(C)N1C(=O)[N-]/[N+](=C(/C(c2ccccc2)=[N+]2/[N-]C(=O)N(C(C)(C)C)C2=O)c2ccccc2)C1=O | – | > 100 µM (inactive) | > 100 µM (inactive) | > 100 µM (inactive) | > 100 µM (inactive) | > 100 µM (inactive) | > 100 µM (inactive) | > 100 µM (inactive) | > 100 µM (inactive) | > 100 µM (inactive) | – | > 100 µM (inactive) | > 100 µM (inactive) | > 100 µM (inactive) | > 100 µM (inactive) | > 100 µM (inactive) | – | > 100 µM (inactive) | > 100 | > 100 µM (inactive) |
| CC(=O)[C@@H]1[C@@H](OC(=O)CCC(C)COC2OC(CO)C(O)C(O)C2O)C[C@H]2[C@@H]3CC=C4C[C@@H](OC5OC(CO)C(OC6OC(C)C(O)C(O)C6O)C(O)C5OC5OC(C)C(O)C(O)C5O)CC[C@]4(C)[C@H]3CC[C@]12C (stereo not given in full) | > 100 µM (inactive) | > 100 µM (inactive) | > 100 µM (inactive) | > 100 µM (inactive) | > 100 µM (inactive) | > 100 µM (inactive) | > 100 µM (inactive) | > 100 µM (inactive) | > 100 µM (inactive) | > 100 µM (inactive) | > 100 µM (inactive) | 64.7 µM (inactive) | > 100 µM (inactive) | > 100 µM (inactive) | > 100 µM (inactive) | > 100 µM (inactive) | – | > 100 µM (inactive) | – | > 100 µM (inactive) |
| CCOC(=O)C(=Cc1[nH]c2ccccc2c1-c1c[nH]c2ccccc12)C(=O)OCC | 16.1 µM (inactive) | 12.7 µM (inactive) | 4.12 µM (inactive) | 12.9 µM (inactive) | 11.6 µM (inactive) | 16.9 µM (inactive) | 13.5 µM (inactive) | 15.3 µM (inactive) | 14.1 µM (inactive) | 15.5 µM (inactive) | 11.3 µM (inactive) | – | 11.7 µM (inactive) | – | 17.1 µM (inactive) | 4.71 µM (inactive) | 11.1 µM (inactive) | 10 µM (inactive) | 10.1 | 6.76 µM (inactive) |
| COc1cc(Br)c(OC)c2c(OC)cc(C)cc12 | – | > 100 µM (inactive) | 67 µM (inactive) | 14.3 µM (inactive) | > 100 µM (inactive) | 89.9 µM (inactive) | > 100 µM (inactive) | > 100 µM (inactive) | > 100 µM (inactive) | – | > 100 µM (inactive) | > 100 µM (inactive) | > 100 µM (inactive) | 42.5 µM (inactive) | – | > 100 µM (inactive) | > 100 µM (inactive) | 64.7 µM (inactive) | > 100 | – |
| CCCCc1ccc(N2C(=O)c3cccnc3S2(=O)=O)cc1 | > 100 µM (inactive) | – | > 100 µM (inactive) | > 100 µM (inactive) | > 100 µM (inactive) | > 100 µM (inactive) | > 100 µM (inactive) | > 100 µM (inactive) | > 100 µM (inactive) | – | > 100 µM (inactive) | > 100 µM (inactive) | > 100 µM (inactive) | > 100 µM (inactive) | > 100 µM (inactive) | > 100 µM (inactive) | > 100 µM (inactive) | > 100 µM (inactive) | > 100 | > 100 µM (inactive) |
| COc1cccc(C2c3cc4c(cc3OC(NNc3ccccc3)C2C)OCO4)c1OC (stereo not given) | 3.45 µM (inactive) | 2.61 µM (inactive) | 1.49 µM (inactive) | 11.2 µM (inactive) | 2.29 µM (inactive) | 17.5 µM (inactive) | 2.82 µM (inactive) | 10.7 µM (inactive) | 5.19 µM (inactive) | 14 µM (inactive) | 7.6 µM (inactive) | 19.1 µM (inactive) | 6.04 µM (inactive) | 3.72 µM (inactive) | 2.5 µM (inactive) | 4.73 µM (inactive) | 4.6 µM (inactive) | 5.06 µM (inactive) | 2.18 | – |
| Nc1nc(NCCCO)cc(=O)[nH]1 | > 100 µM (inactive) | – | > 100 µM (inactive) | > 100 µM (inactive) | > 100 µM (inactive) | > 100 µM (inactive) | > 100 µM (inactive) | > 100 µM (inactive) | > 100 µM (inactive) | > 100 µM (inactive) | > 100 µM (inactive) | > 100 µM (inactive) | > 100 µM (inactive) | > 100 µM (inactive) | > 100 µM (inactive) | > 100 µM (inactive) | > 100 µM (inactive) | > 100 µM (inactive) | > 100 | > 100 µM (inactive) |
| CC(C)(C)n1c(=O)n2n(c1=O)C1c3cccc4cccc(c34)C2C2c3cccc4cccc(c34)C1n1c(=O)n(C(C)(C)C)c(=O)n12 | 63.1 µM (inactive) | 93.5 µM (inactive) | 87.5 µM (inactive) | 10.8 µM (inactive) | 64.3 µM (inactive) | 32.9 µM (inactive) | > 100 µM (inactive) | 95.7 µM (inactive) | 80.2 µM (inactive) | > 100 µM (inactive) | 86.9 µM (inactive) | 90.4 µM (inactive) | 43 µM (inactive) | 32.7 µM (inactive) | 6.65 µM (inactive) | > 100 µM (inactive) | 21.7 µM (inactive) | > 100 µM (inactive) | 74.5 | – |
| C[C@]12CC(c3ccccc3O1)C(C#N)C(=O)N2 (stereo not given in full) | > 100 µM (inactive) | – | > 100 µM (inactive) | > 100 µM (inactive) | > 100 µM (inactive) | > 100 µM (inactive) | – | > 100 µM (inactive) | > 100 µM (inactive) | > 100 µM (inactive) | > 100 µM (inactive) | > 100 µM (inactive) | > 100 µM (inactive) | > 100 µM (inactive) | > 100 µM (inactive) | > 100 µM (inactive) | > 100 µM (inactive) | > 100 µM (inactive) | > 100 | > 100 µM (inactive) |
| COc1cccc(N2CCc3c(C)c(C#N)c4nc5ccccc5n4c32)c1 | – | > 100 µM (inactive) | > 100 µM (inactive) | 41.5 µM (inactive) | > 100 µM (inactive) | 12.2 µM (inactive) | > 100 µM (inactive) | > 100 µM (inactive) | > 100 µM (inactive) | > 100 µM (inactive) | 41.4 µM (inactive) | > 100 µM (inactive) | 53.6 µM (inactive) | > 100 µM (inactive) | – | > 100 µM (inactive) | > 100 µM (inactive) | > 100 µM (inactive) | > 100 | > 100 µM (inactive) |
| O=c1[nH]c2c(C(F)(F)F)c(Cl)c(-c3ccccc3)nc2o1 | 14.8 µM (inactive) | 31.2 µM (inactive) | 27.2 µM (inactive) | – | 25.5 µM (inactive) | 25.1 µM (inactive) | 12.5 µM (inactive) | 15.3 µM (inactive) | 38.1 µM (inactive) | 4.83 µM (inactive) | 31.3 µM (inactive) | 33.8 µM (inactive) | 19.3 µM (inactive) | 10 µM (inactive) | 34.4 µM (inactive) | 45.6 µM (inactive) | 41.8 µM (inactive) | 21.5 µM (inactive) | 22.1 | 19.6 µM (inactive) |
| CCC(C)N1CN(c2ccccc2)C2(CCN(CCCSc3ccc(F)cc3)CC2)C1=O (stereo not given) | 3.33 µM (inactive) | 3.27 µM (inactive) | 2.22 µM (inactive) | 11.1 µM (inactive) | 2.04 µM (inactive) | 0.296 µM (active) | 2.42 µM (inactive) | 4.01 µM (inactive) | 3.03 µM (inactive) | 1.96 µM (inactive) | 6.17 µM (inactive) | 4.06 µM (inactive) | 3.72 µM (inactive) | 2.44 µM (inactive) | 3.45 µM (inactive) | 3.09 µM (inactive) | 4.31 µM (inactive) | 2.34 µM (inactive) | 1.75 | – |
